This assay has as its target Acetylcholinesterase (Homo sapiens) (UniProt P22303). The experiment in a line: Inhibition of AChE at 95 umol.

Among the data in ChEMBL document CHEMBL1150116, “Huperzine R, a novel 15-carbon Lycopodium alkaloid from Huperzia serrata” (J Nat Prod, 2002) are inhibition values, retold here.

Chain of Acetylcholinesterase (Homo sapiens) (P22303 whole entry): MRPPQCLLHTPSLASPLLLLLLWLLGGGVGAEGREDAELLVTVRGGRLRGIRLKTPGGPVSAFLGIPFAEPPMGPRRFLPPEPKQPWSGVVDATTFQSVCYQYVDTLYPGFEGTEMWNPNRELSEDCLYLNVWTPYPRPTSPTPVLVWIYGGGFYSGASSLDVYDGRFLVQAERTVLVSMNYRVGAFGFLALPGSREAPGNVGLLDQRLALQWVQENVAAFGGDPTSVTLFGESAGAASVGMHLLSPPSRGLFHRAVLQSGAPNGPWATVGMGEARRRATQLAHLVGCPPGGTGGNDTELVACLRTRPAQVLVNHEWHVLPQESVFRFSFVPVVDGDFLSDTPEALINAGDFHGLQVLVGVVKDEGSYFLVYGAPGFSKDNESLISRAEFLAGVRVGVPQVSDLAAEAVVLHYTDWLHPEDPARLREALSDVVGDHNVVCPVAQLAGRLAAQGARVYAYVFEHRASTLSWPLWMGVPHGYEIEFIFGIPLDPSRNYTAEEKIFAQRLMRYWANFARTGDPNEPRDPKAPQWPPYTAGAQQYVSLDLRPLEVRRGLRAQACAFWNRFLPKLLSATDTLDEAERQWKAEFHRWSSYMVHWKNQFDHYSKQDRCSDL

Take `C[C@H]1CC(=O)N2CCCC3=C(C1)C(=O)O[C@H]3CCC2`: the inhibition (as a rule, the change of the read-out against control, counted positive when it falls) is 27%.
